Source: article PMC2572567 (Biochemical pharmacology, 2008)

Assays:
BChE in rat heart = BChE in rat heart (Rattus norvegicus, UniProt Q9JKC1); assay: Radiometric cholinesterase assay, BChE activity in cardiac homogenates; format: biochemical
[1] = target: T1, muscarinic receptors in heart (Rattus norvegicus, UniProt P10980); assay: [3H]oxotremorine-M displacement assay, cardiac membranes; format: binding; details: for [3H]Oxotremorine-M maximum displacement: 1 nM [3H]OXO, 21°C, 90 min, mean ± S.E.
T1 sequence (P10980 1-466): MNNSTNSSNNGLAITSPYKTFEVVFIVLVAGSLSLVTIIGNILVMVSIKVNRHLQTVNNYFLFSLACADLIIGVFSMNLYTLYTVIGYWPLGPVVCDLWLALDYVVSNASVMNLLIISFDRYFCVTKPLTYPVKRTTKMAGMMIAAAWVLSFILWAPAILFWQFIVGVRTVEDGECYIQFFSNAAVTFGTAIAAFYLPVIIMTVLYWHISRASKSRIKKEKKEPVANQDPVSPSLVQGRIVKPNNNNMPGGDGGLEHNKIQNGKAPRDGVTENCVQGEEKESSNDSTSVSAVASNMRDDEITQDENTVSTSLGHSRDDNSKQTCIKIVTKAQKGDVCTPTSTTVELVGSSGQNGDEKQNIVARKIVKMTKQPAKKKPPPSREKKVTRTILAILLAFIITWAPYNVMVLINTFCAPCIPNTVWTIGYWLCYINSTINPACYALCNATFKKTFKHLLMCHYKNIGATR

rats [2] = details: cited from earlier work
rats [3] = details: aged versus adult rats; cited from earlier work
[4] = tested on: muscarinic receptors in cortex; assay: [3H]oxotremorine-M displacement assay, cortical membranes; format: binding, rat; details: for [3H]Oxotremorine-M maximum displacement: 1 nM [3H]OXO, 21°C, 90 min, mean ± S.E.
heart rate = details: Starling heart-lung preparation of the dog; cited from earlier work
[5] = tested on: cardiac muscarinic receptors; details: cited from earlier work
AChE in rat heart = target: T2, AChE in rat heart (Rattus norvegicus, UniProt P37136); assay: Radiometric cholinesterase assay, AChE activity in cardiac homogenates; format: biochemical; details: heart and cortex (Tables 2 and 3)
T2 sequence (P37136 32-614): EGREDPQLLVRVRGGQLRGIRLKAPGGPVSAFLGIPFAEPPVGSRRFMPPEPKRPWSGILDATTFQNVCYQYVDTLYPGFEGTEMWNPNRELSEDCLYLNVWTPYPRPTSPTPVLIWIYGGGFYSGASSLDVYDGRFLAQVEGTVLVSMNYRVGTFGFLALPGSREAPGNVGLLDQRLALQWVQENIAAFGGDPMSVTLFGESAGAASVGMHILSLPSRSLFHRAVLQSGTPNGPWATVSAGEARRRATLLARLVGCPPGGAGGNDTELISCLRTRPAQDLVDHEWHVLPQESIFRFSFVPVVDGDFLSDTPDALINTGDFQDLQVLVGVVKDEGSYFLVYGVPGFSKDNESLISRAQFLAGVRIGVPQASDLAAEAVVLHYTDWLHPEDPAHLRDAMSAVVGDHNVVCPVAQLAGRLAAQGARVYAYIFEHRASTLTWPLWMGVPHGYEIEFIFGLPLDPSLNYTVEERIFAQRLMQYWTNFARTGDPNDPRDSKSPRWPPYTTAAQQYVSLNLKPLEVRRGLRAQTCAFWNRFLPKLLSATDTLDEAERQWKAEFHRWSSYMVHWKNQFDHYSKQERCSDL

Chain of BChE in rat heart (Q9JKC1 24-597): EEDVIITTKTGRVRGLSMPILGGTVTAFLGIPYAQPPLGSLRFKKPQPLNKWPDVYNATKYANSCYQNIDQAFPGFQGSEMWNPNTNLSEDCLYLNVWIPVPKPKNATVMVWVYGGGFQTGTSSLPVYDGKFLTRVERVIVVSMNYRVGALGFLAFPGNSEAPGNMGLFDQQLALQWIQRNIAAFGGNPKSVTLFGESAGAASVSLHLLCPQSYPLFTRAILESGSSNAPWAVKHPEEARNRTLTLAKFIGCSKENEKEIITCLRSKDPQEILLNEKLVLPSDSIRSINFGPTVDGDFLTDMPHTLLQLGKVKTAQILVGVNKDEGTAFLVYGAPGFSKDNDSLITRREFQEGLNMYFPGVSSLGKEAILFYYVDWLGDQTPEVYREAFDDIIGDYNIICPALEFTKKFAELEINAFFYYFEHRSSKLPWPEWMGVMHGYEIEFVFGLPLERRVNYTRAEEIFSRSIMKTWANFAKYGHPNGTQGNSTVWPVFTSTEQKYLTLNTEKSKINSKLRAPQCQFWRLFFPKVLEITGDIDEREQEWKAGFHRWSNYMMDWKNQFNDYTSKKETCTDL

## CC(C)NP(=O)(NC(C)C)OP(=O)(NC(C)C)NC(C)C [iso-OMPA, tetraisopropylpyrophosphoramide]
BChE in rat heart
  IC50: 200 nM
BChE in rat heart; adult and aging, heart versus cortex
  IC50 against BChE in heart, fold lower than in cortex: ~ 10 fold

## CCOP(=S)(OCC)Oc1nc(Cl)c(Cl)cc1Cl [Chlorpyrifos, O,O′-diethyl-O-3,5,6-trichloro-2-pyridinyl phosphorothioate]
[1]; heart, adult and aging rats, 30 pM-3 μM
  Displacement of [3H]OXO radioligand binding (in words): did not displace
Rats [2]
  oral LD50: about 100 mg/kg
Rats [3]
  Sensitivity of aged rats to acute toxicity relative to adults: similar
[4]; cortex, adult and aging rats, 30 pM-3 μM
  Displacement of [3H]OXO radioligand binding (in words): did not displace

## C=CC[N+](C)(C)c1ccc(CCC(=O)CCc2ccc([N+](C)(C)CC=C)cc2)cc1.[Br-].[Br-] [BW 284C51, 1,5-bis (allyldimethylammoniumphenyl) pentane-3-dibromide]
Heart rate
  Effect on heart rate: had no effect

## CCOP(=S)(OCC)Oc1ccc([N+](=O)[O-])cc1 [parathion]
Rats [3]
  Sensitivity of aged rats to acute toxicity relative to adults: 3 fold

## COP(=S)(OC)Oc1ccc([N+](=O)[O-])cc1 [Methyl parathion, O,O′-dimethyl-p-nitrophenyl-phosphorothioate]
[1]; adult heart membranes
  [3H]Oxotremorine-M maximum displacement: 31 ± 3%
[1]; aging heart membranes
  [3H]Oxotremorine-M maximum displacement: 26 ± 2%
Rats [2]
  oral LD50: about 20 mg/kg
[4]; adult cortex membranes
  [3H]Oxotremorine-M maximum displacement: 22 ± 3%
[4]; aging cortex membranes
  [3H]Oxotremorine-M maximum displacement: 20 ± 3%
[5]
  Nature of interaction with cardiac muscarinic receptors ([3H]OXO binding sites): reversibly

## COP(=O)(OC)Oc1ccc([N+](=O)[O-])cc1 [Methyl paraoxon, O,O′-dimethyl-p-nitrophenyl-phosphate]
[1]; adult heart membranes
  [3H]Oxotremorine-M maximum displacement: 37 ± 3%
[1]; aging heart membranes
  [3H]Oxotremorine-M maximum displacement: 29 ± 3%
[4]; adult cortex membranes
  [3H]Oxotremorine-M maximum displacement: 33 ± 2%
[4]; aging cortex membranes
  [3H]Oxotremorine-M maximum displacement: 36 ± 2%
[4]; aging versus adult cortex
  [3H]OXO displacement IC50 in aging cortex, fold higher than adult cortex: ~ 10 fold
AChE in rat heart
  Sensitivity of AChE relative to BChE to inhibition: ~ 2 fold

## CCOP(=O)(OCC)Oc1nc(Cl)c(Cl)cc1Cl [Chlorpyrifos oxon, O,O′-diethyl-O-3,5,6-trichloro-2-pyridinyl phosphate]
[1]; adult heart membranes
  [3H]Oxotremorine-M maximum displacement: 50 ± 3%
[1]; aging heart membranes
  [3H]Oxotremorine-M maximum displacement: 39 ± 4%
BChE in rat heart; heart and cortex, both age groups
  Sensitivity of BChE relative to AChE to inhibition in vitro: 3.5–12 times
[4]; adult cortex membranes
  [3H]Oxotremorine-M maximum displacement: 51 ± 2%
[4]; aging cortex membranes
  [3H]Oxotremorine-M maximum displacement: 49 ± 3%
[5]
  Nature of interaction with cardiac muscarinic receptors ([3H]OXO binding sites): irreversible
